Assay results reported in US6689773B2, “Uracil substituted phenyl sulfamoyl carboxamides” (BASF Aktiengesellschaft, priority 2000, dated 2004).

Tests used:
Type in all cases: in vivo
[1] = test system: ABUTH, Velvetleaf, Abutilon theophrasti, Medic.; assay: Postemergence herbicidal evaluation (Example 147); settings: rating scale 0-9, two to three weeks after treatment
Method in brief: (§1)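 Plants at about two weeks from sowing received a foliar spray of test compound equivalent to roughly 0.016 to 0.032 kg per hectare. The carrier was 80/20 acetone/water containing 1.0% methylated seed oil. Injury was scored on a 0-9 visual scale two to three weeks later.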

[2] = test system: ALOMY, Blackgrass, Alopecurus myosuroides; assay: Postemergence herbicidal evaluation (Example 147); settings: rating scale 0-9, two to three weeks after treatment
Method in brief: as §1

[3] = test system: AMBEL, Ragweed, Common, Ambrosia artemiisifolia, L.; assay: Postemergence herbicidal evaluation (Example 147); settings: rating scale 0-9, two to three weeks after treatment
Method in brief: as §1

[4] = test system: CHEAL, Lambsquarters, Chenopodium album, L. Common; assay: Postemergence herbicidal evaluation (Example 147); settings: rating scale 0-9, two to three weeks after treatment
Method in brief: as §1

[5] = test system: DIGSA, Crabgrass, (Hairy) L, Digitaria sanguinalis, (L)Scop; assay: Postemergence herbicidal evaluation (Example 147); settings: rating scale 0-9, two to three weeks after treatment
Method in brief: as §1

[6] = test system: ECHCG, Barnyardgrass, Echinochloa crusgalli, (L.)Beau; assay: Postemergence herbicidal evaluation (Example 147); settings: rating scale 0-9, two to three weeks after treatment
Method in brief: as §1

[7] = test system: GLXMA, Soybean, Glycine max, (L.) Merr.; assay: Postemergence herbicidal evaluation (Example 147); settings: rating scale 0-9, two to three weeks after treatment
Method in brief: as §1

[8] = test system: IPOHE, Morningglory, Ivyleaf, Ipomoea hederacea, (L)Jacq.; assay: Postemergence herbicidal evaluation (Example 147); settings: rating scale 0-9, two to three weeks after treatment
Method in brief: as §1

[9] = test system: SETVI, Green foxtail, Setaria viridis, (L.)Beau; assay: Postemergence herbicidal evaluation (Example 147); settings: rating scale 0-9, two to three weeks after treatment
Method in brief: as §1

[10] = test system: TRZAW, Winter wheat, Tritium Aestivum, L. (Winter); assay: Postemergence herbicidal evaluation (Example 147); settings: rating scale 0-9, two to three weeks after treatment
Method in brief: as §1

[11] = test system: XANST, Cocklebur, Xanthium strumariam; assay: Postemergence herbicidal evaluation (Example 147); settings: rating scale 0-9, two to three weeks after treatment
Method in brief: as §1

[12] = test system: ZEAMX, Field corn, Zea mays L.; assay: Postemergence herbicidal evaluation (Example 147); settings: rating scale 0-9, two to three weeks after treatment
Method in brief: as §1

[13] = test system: ABUTH, Velvetleaf, Abutilon theophrasti, Medic.; assay: Preemergence herbicidal evaluation (Example 148); settings: rating scale 0-9, two to four weeks after treatment
Method in brief: (§2)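 Sow seed–soil mix onto ~1 in soil; spray aqueous acetone compound solution (~0.125–0.250 kg/ha equivalent); keep on greenhouse benches under standard watering; score injury visually after 2–4 weeks.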

[14] = test system: ALOMY, Blackgrass, Alopecurus myosuroides; assay: Preemergence herbicidal evaluation (Example 148); settings: rating scale 0-9, two to four weeks after treatment
Method in brief: as §2

[15] = test system: AMBEL, Ragweed, Common, Ambrosia artemiisifolia, L.; assay: Preemergence herbicidal evaluation (Example 148); settings: rating scale 0-9, two to four weeks after treatment
Method in brief: as §2

[16] = test system: CHEAL, Lambsquarters, Chenopodium album, L. Common; assay: Preemergence herbicidal evaluation (Example 148); settings: rating scale 0-9, two to four weeks after treatment
Method in brief: as §2

[17] = test system: DIGSA, Crabgrass, (Hairy) L, Digitaria sanguinalis, (L)Scop; assay: Preemergence herbicidal evaluation (Example 148); settings: rating scale 0-9, two to four weeks after treatment
Method in brief: as §2

[18] = test system: ECHCG, Barnyardgrass, Echinochloa crusgalli, (L.)Beau; assay: Preemergence herbicidal evaluation (Example 148); settings: rating scale 0-9, two to four weeks after treatment
Method in brief: as §2

[19] = test system: GLXMA, Soybean, Glycine max, (L.) Merr.; assay: Preemergence herbicidal evaluation (Example 148); settings: rating scale 0-9, two to four weeks after treatment
Method in brief: as §2

[20] = test system: IPOHE, Morningglory, Ivyleaf, Ipomoea hederacea, (L)Jacq.; assay: Preemergence herbicidal evaluation (Example 148); settings: rating scale 0-9, two to four weeks after treatment
Method in brief: as §2

[21] = test system: SETVI, Green foxtail, Setaria viridis, (L.)Beau; assay: Preemergence herbicidal evaluation (Example 148); settings: rating scale 0-9, two to four weeks after treatment
Method in brief: as §2

[22] = test system: TRZAW, Winter wheat, Tritium Aestivum, L. (Winter); assay: Preemergence herbicidal evaluation (Example 148); settings: rating scale 0-9, two to four weeks after treatment
Method in brief: as §2

[23] = test system: XANST, Cocklebur, Xanthium strumariam; assay: Preemergence herbicidal evaluation (Example 148); settings: rating scale 0-9, two to four weeks after treatment
Method in brief: as §2

[24] = test system: ZEAMX, Field corn, Zea mays L.; assay: Preemergence herbicidal evaluation (Example 148); settings: rating scale 0-9, two to four weeks after treatment
Method in brief: as §2

CN(Cc1cccc(Cl)c1)S(=O)(=O)NC(=O)c1cc(-n2c(=O)cc(C(F)(F)F)n(C)c2=O)c(F)cc1Cl [Example 55]
1.0: Preemergence herbicidal rating TRZAW ([22]; rate 0.125 kg/ha) | Preemergence herbicidal rating ZEAMX ([24]; rate 0.25 kg/ha)
5.0: Postemergence herbicidal rating DIGSA ([5]; rate 0.016 kg/ha) | Preemergence herbicidal rating ECHCG ([18]; rate 0.125 kg/ha)
2.0: Postemergence herbicidal rating ALMOY ([2]; rate 0.016 kg/ha) | Postemergence herbicidal rating ALMOY ([2]; rate 0.032 kg/ha) | Preemergence herbicidal rating TRZAW ([22]; rate 0.25 kg/ha)
7.0: Postemergence herbicidal rating CHEAL ([4]; rate 0.016 kg/ha) | Postemergence herbicidal rating CHEAL ([4]; rate 0.032 kg/ha) | Postemergence herbicidal rating ECHCG ([6]; rate 0.016 kg/ha) | Postemergence herbicidal rating ECHCG ([6]; rate 0.032 kg/ha) | Postemergence herbicidal rating SETVI ([9]; rate 0.016 kg/ha) | Preemergence herbicidal rating XANST ([23]; rate 0.25 kg/ha)
0.0: Preemergence herbicidal rating ALMOY ([14]; rate 0.125 kg/ha) | Preemergence herbicidal rating ALMOY ([14]; rate 0.25 kg/ha) | Preemergence herbicidal rating ZEAMX ([24]; rate 0.125 kg/ha)
6.0: Postemergence herbicidal rating DIGSA ([5]; rate 0.032 kg/ha) | Postemergence herbicidal rating TRZAW ([10]; rate 0.016 kg/ha) | Postemergence herbicidal rating TRZAW ([10]; rate 0.032 kg/ha) | Preemergence herbicidal rating SETVI ([21]; rate 0.125 kg/ha) | Preemergence herbicidal rating XANST ([23]; rate 0.125 kg/ha)
8.0: Postemergence herbicidal rating AMBEL ([3]; rate 0.016 kg/ha) | Postemergence herbicidal rating GLXMA ([7]; rate 0.016 kg/ha) | Postemergence herbicidal rating GLXMA ([7]; rate 0.032 kg/ha) | Postemergence herbicidal rating IPOHE ([8]; rate 0.016 kg/ha) | Postemergence herbicidal rating SETVI ([9]; rate 0.032 kg/ha) | Postemergence herbicidal rating XANST ([11]; rate 0.032 kg/ha) | Postemergence herbicidal rating ZEAMX ([12]; rate 0.016 kg/ha) | Postemergence herbicidal rating ZEAMX ([12]; rate 0.032 kg/ha) | Preemergence herbicidal rating AMBEL ([15]; rate 0.125 kg/ha) | Preemergence herbicidal rating CHEAL ([16]; rate 0.125 kg/ha) | Preemergence herbicidal rating DIGSA ([17]; rate 0.125 kg/ha) | Preemergence herbicidal rating DIGSA ([17]; rate 0.25 kg/ha) | Preemergence herbicidal rating GLXMA ([19]; rate 0.125 kg/ha) | Preemergence herbicidal rating GLXMA ([19]; rate 0.25 kg/ha) | Preemergence herbicidal rating IPOHE ([20]; rate 0.125 kg/ha) | Preemergence herbicidal rating SETVI ([21]; rate 0.25 kg/ha)
9.0: Postemergence herbicidal rating ABUTH ([1]; rate 0.016 kg/ha) | Postemergence herbicidal rating ABUTH ([1]; rate 0.032 kg/ha) | Postemergence herbicidal rating AMBEL ([3]; rate 0.032 kg/ha) | Postemergence herbicidal rating IPOHE ([8]; rate 0.032 kg/ha) | Postemergence herbicidal rating XANST ([11]; rate 0.016 kg/ha) | Preemergence herbicidal rating ABUTH ([13]; rate 0.125 kg/ha) | Preemergence herbicidal rating ABUTH ([13]; rate 0.25 kg/ha) | Preemergence herbicidal rating AMBEL ([15]; rate 0.25 kg/ha) | Preemergence herbicidal rating CHEAL ([16]; rate 0.25 kg/ha) | Preemergence herbicidal rating ECHCG ([18]; rate 0.25 kg/ha) | Preemergence herbicidal rating IPOHE ([20]; rate 0.25 kg/ha)

CNS(=O)(=O)NC(=O)c1cc(-n2c(=O)cc(C(F)(F)F)n(C)c2=O)c(F)cc1Cl [Example 56]
5.0: Postemergence herbicidal rating DIGSA ([5]; rate 0.032 kg/ha) | Postemergence herbicidal rating TRZAW ([10]; rate 0.032 kg/ha)
3.0: Postemergence herbicidal rating DIGSA ([5]; rate 0.016 kg/ha) | Preemergence herbicidal rating ECHCG ([18]; rate 0.125 kg/ha)
4.0: Postemergence herbicidal rating TRZAW ([10]; rate 0.016 kg/ha) | Preemergence herbicidal rating SETVI ([21]; rate 0.125 kg/ha)
6.0: Postemergence herbicidal rating SETVI ([9]; rate 0.016 kg/ha)
9.0: Postemergence herbicidal rating ABUTH ([1]; rate 0.016 kg/ha) | Postemergence herbicidal rating ABUTH ([1]; rate 0.032 kg/ha) | Postemergence herbicidal rating AMBEL ([3]; rate 0.032 kg/ha) | Postemergence herbicidal rating IPOHE ([8]; rate 0.016 kg/ha) | Postemergence herbicidal rating IPOHE ([8]; rate 0.032 kg/ha) | Postemergence herbicidal rating XANST ([11]; rate 0.016 kg/ha) | Postemergence herbicidal rating XANST ([11]; rate 0.032 kg/ha) | Preemergence herbicidal rating ABUTH ([13]; rate 0.125 kg/ha) | Preemergence herbicidal rating ABUTH ([13]; rate 0.25 kg/ha) | Preemergence herbicidal rating AMBEL ([15]; rate 0.125 kg/ha) | Preemergence herbicidal rating AMBEL ([15]; rate 0.25 kg/ha) | Preemergence herbicidal rating CHEAL ([16]; rate 0.125 kg/ha) | Preemergence herbicidal rating CHEAL ([16]; rate 0.25 kg/ha) | Preemergence herbicidal rating GLXMA ([19]; rate 0.25 kg/ha) | Preemergence herbicidal rating IPOHE ([20]; rate 0.25 kg/ha) | Preemergence herbicidal rating XANST ([23]; rate 0.25 kg/ha)
8.5: Postemergence herbicidal rating GLXMA ([7]; rate 0.016 kg/ha) | Postemergence herbicidal rating GLXMA ([7]; rate 0.032 kg/ha)
7.0: Postemergence herbicidal rating CHEAL ([4]; rate 0.016 kg/ha) | Postemergence herbicidal rating CHEAL ([4]; rate 0.032 kg/ha) | Postemergence herbicidal rating ECHCG ([6]; rate 0.016 kg/ha) | Postemergence herbicidal rating ECHCG ([6]; rate 0.032 kg/ha) | Postemergence herbicidal rating SETVI ([9]; rate 0.032 kg/ha) | Preemergence herbicidal rating DIGSA ([17]; rate 0.125 kg/ha) | Preemergence herbicidal rating DIGSA ([17]; rate 0.25 kg/ha) | Preemergence herbicidal rating ECHCG ([18]; rate 0.25 kg/ha)
0.0: Preemergence herbicidal rating ALMOY ([14]; rate 0.125 kg/ha) | Preemergence herbicidal rating ALMOY ([14]; rate 0.25 kg/ha) | Preemergence herbicidal rating TRZAW ([22]; rate 0.125 kg/ha) | Preemergence herbicidal rating TRZAW ([22]; rate 0.25 kg/ha) | Preemergence herbicidal rating ZEAMX ([24]; rate 0.125 kg/ha)
7.5: Postemergence herbicidal rating ZEAMX ([12]; rate 0.016 kg/ha)
2.0: Postemergence herbicidal rating ALMOY ([2]; rate 0.016 kg/ha) | Postemergence herbicidal rating ALMOY ([2]; rate 0.032 kg/ha) | Preemergence herbicidal rating GLXMA ([19]; rate 0.125 kg/ha) | Preemergence herbicidal rating ZEAMX ([24]; rate 0.25 kg/ha)
8.0: Postemergence herbicidal rating AMBEL ([3]; rate 0.016 kg/ha) | Postemergence herbicidal rating ZEAMX ([12]; rate 0.032 kg/ha) | Preemergence herbicidal rating IPOHE ([20]; rate 0.125 kg/ha) | Preemergence herbicidal rating SETVI ([21]; rate 0.25 kg/ha) | Preemergence herbicidal rating XANST ([23]; rate 0.125 kg/ha)
